Experimental findings from patent publication US20240051931A1, “HDAC INHIBITORS” (University of Pittsburgh - Of the Commonwealth System of …, priority 2020, published 2024) are described below.

One data set concerns PanHDAC. Kind of data set: PanHDAC activity at fixed concentration (Table 2). The following applies: compound at 1 uM. The arrangement: unit not given here. Type of data set: biochemical.
A further data set concerns the target T1, HDAC 6 (Homo sapiens, UniProt Q9UBN7).
T1 sequence (Q9UBN7 1-1215): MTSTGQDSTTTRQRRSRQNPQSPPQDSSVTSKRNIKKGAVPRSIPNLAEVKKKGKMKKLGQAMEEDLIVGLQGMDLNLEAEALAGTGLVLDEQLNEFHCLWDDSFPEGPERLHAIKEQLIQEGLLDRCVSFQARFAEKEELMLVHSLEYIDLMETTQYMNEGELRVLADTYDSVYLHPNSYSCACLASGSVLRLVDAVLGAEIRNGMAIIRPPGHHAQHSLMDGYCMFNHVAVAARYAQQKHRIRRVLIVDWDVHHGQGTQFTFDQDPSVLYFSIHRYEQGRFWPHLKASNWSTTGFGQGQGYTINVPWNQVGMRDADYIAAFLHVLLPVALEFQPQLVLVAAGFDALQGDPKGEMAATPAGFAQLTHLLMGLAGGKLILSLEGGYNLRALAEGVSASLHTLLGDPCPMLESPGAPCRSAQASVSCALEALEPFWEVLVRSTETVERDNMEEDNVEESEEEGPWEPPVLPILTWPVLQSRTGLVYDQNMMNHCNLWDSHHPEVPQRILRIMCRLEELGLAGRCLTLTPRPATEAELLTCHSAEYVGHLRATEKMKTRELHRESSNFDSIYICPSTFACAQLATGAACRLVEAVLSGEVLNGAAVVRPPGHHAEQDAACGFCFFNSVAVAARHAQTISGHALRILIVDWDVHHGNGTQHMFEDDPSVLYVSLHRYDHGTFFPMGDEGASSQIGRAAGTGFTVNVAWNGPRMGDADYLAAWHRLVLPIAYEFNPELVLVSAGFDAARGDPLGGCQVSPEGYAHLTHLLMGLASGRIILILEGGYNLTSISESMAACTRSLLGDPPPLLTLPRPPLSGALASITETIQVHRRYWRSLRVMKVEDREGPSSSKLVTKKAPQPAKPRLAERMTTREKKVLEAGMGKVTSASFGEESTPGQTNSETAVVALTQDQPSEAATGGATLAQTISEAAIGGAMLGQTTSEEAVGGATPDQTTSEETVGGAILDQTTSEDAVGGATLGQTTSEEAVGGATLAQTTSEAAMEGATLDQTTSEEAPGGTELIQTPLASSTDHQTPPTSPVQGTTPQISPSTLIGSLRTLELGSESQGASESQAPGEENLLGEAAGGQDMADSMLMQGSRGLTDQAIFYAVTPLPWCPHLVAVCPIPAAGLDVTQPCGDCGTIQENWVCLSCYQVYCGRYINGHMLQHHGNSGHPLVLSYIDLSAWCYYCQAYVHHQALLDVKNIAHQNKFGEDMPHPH
The data set is described as follows: HDAC 6 activity at fixed concentration (Table 2). The note with it: compound at 50 nM. It counts as biochemical. The arrangement: unit not given here.

The compound `O=C(NO)C1CCc2ccc(OCc3ccc(C(F)(F)F)cc3)cc2O1` (stereo not shown) [Compound 50a, N-Hydroxy-7-((4-(trifluoromethyl)benzyl)oxy)chromane-2-carboxamide] yielded a melting point of 148 to 151 °C. `O=C(NO)C1CCc2cc(-c3ccc(F)cc3)ccc2O1` (stereo not shown) [Compound 44b, 6-(4-Fluorophenyl)-N-hydroxychromane-2-carboxamide]: the melting point was in the range of 177 to 179 °C. Still for that read-out and setting: under `O=C(Nc1cccc2c1O[C@H](C(=O)NO)CC2)OCc1ccccc1Cl` [−11L, 2-Chlorobenzyl (S)-(2-(hydroxycarbamoyl)chroman-8-yl)carbamate] stands 176 to 178 °C. Take `CN1CC(C(=O)NO)Oc2ccccc21` (stereo not shown) [Compound 78, N-Hydroxy-4-methyl-3,4-dihydro-2H-benzo[b][1,4]oxazine-2-carboxamide]: the melting point was in the range of 118 to 120 °C.

With `O=C(NO)[C@@H]1CCc2ccc(OCc3ccccc3Cl)cc2O1` [Compound 50d, (S)-7-((2-Chlorobenzyl)oxy)-N-hydroxychromane-2-carboxamide], the melting point fell in the range of 141 to 147 °C. In the case of `O=C(NO)C1CCc2cc(C#CCOc3ccc(F)cc3)ccc2O1` (stereo not shown) [Compound 25, 6-(3-(4-Fluorophenoxy)prop-1-yn-1-yl)-N-hydroxychromane-2-carboxamide], the melting point lay within 149 to 151 °C. `O=C(Nc1ccc2c(c1)CCC(C(=O)NO)O2)c1ccc(S(F)(F)(F)(F)F)cc1` (stereo not shown) [Compound 14c, N-Hydroxy-6-(4-(pentafluoro-λ^6-sulfaneyl)benzamido)chromane-2-carboxamide] registered a melting point of 214 to 216 °C. `COc1ccc(-c2ccc3c(c2)OC(C(=O)NO)CC3)cc1` (stereo not shown) [Compound 58c, N-Hydroxy-7-(4-methoxyphenyl)chromane-2-carboxamide] gave a melting point of 181 to 183 °C.

`O=C(NCc1ccccc1)Nc1cccc2c1OC(C(=O)NO)CC2` (stereo not shown) [Compound 11e, 8-(3-Benzylureido)-N-hydroxychromane-2-carboxamide] gave a melting point of 187 to 190 °C. The same measure, in the same setting: under `O=C(NO)C1CCc2cccc(NS(=O)(=O)c3cccc4ccccc34)c2O1` (stereo not shown) [Compound 11n, N-Hydroxy-8-(naphthalene-1-sulfonamido)chromane-2-carboxamide] stands 219 to 221 °C; under `O=C(NO)C1CCc2cc(CCCOC(=O)N3CCc4ccccc4C3)ccc2O1` (stereo not shown) [Compound 40, 3-(2-(Hydroxycarbamoyl)chroman-6-yl)propyl 3,4-dihydroisoquinoline-2(1H)-carboxylate], 82 to 84 °C; under `O=C(NO)C1CCc2ccc(-c3ccc(Cl)c(Cl)c3)cc2O1` (stereo not shown) [Compound 58a, 7-(3,4-Dichlorophenyl)-N-hydroxychromane-2-carboxamide], 167 to 169 °C. Same read-out and setting: with `O=C(Nc1cccc2c1O[C@@H](C(=O)NO)CC2)OCc1ccccc1Cl` [+11L, 2-Chlorobenzyl (R)-(2-(hydroxycarbamoyl)chroman-8-yl)carbamate] the figure was 173 to 175 °C; with `O=C(NO)C1CCc2cc(CCCOc3ccc(F)cc3)ccc2O1` (stereo not shown) [Compound 31, 6-(3-(4-Fluorophenoxy)propyl)-N-hydroxychromane-2-carboxamide], 145 to 147 °C. The compound `O=C(NO)C1CCc2ccc(OCCOc3ccc(F)cc3)cc2O1` (stereo not shown) [Compound 50b, 7-(2-(4-Fluorophenoxy)ethoxy)-N-hydroxychromane-2-carboxamide] came in with a melting point of 144 to 147 °C. Compound `O=C(NO)[C@@H]1CCc2ccc(-c3ccc(F)c(Cl)c3)cc2O1` [(S)-58d, (S)-7-(3-Chloro-4-fluorophenyl)-N-hydroxychromane-2-carboxamide] registered a melting point of 173 to 174 °C. `O=C(Nc1cccc2c1OC(C(=O)NO)CC2)OCc1ccc(C(F)(F)F)cc1` (stereo not shown) [Compound 11f, 4-(Trifluoromethyl)benzyl (2-(hydroxycarbamoyl)chroman-8-yl)carbamate]: the melting point was 102 to 104 °C. On to `Cc1ccc(S(=O)(=O)Nc2cccc3c2OC(C(=O)NO)CC3)cc1` (stereo not shown) [Compound 11p, N-Hydroxy-8-((4-methylphenyl)sulfonamido)chromane-2-carboxamide], for which the melting point was in the range of 235 to 237 °C. The compound `O=C(NO)[C@@H]1CCc2ccc(-c3ccc(Cl)c(Cl)c3)cc2O1` [(S)-58e, (S)-7-(3,4-Dichlorophenyl)-N-hydroxychromane-2-carboxamide] displayed a melting point of 134 to 136 °C. `C[C@@H]1Cc2ccccc2O[C@@H]1C(=O)NO` (relative stereo) [Compound 73, (rel)-(2S,3R)—N-Hydroxy-3-methylchromane-2-carboxamide]: the melting point is 156 to 160 °C.

In turn, `O=C(Nc1cccc2c1OC(C(=O)NO)CC2)OCc1ccccc1Cl` (racemic) [Compound 11L, 2-Chlorobenzyl (2-(hydroxycarbamoyl)chroman-8-yl)carbamate] came in with a melting point of 182 to 188 °C.

As to `O=C(Nc1ccc2c(c1)CCC(C(=O)NO)O2)OCc1ccccc1Cl` (stereo not shown) [Compound 14k, 2-Chlorobenzyl (2-(hydroxycarbamoyl)chroman-6-yl)carbamate], the melting point fell in the range of 188 to 189 °C.

In the case of `O=C(NO)C1CCc2ccc(O)cc2O1` (stereo not shown) [Compound 1-17], the “PanHDAC at 1 uM” value in the data set on PanHDAC was found to be 0. Besides, at HDAC 6, the “HDAC 6 at 50 nM” value is reported as 40. The matching figures for `COc1ccc(C(=O)Nc2ccc3c(c2)CCC(C(=O)NO)O3)cc1` (stereo not shown) [Compound 1-5]: 0 and 29. The matching figures for `O=C(NO)[C@@H]1CCc2ccc(-c3ccc(F)c(Cl)c3)cc2O1` [Compound 1-64]: 3 and 47.

Consider `O=C(Nc1ccc2c(c1)CCC(C(=O)NO)O2)OCc1ccccc1Cl` (stereo not shown) [Compound 1-33], for which, in the data set on PanHDAC, the “PanHDAC at 1 uM” value stood at 0. Moreover, the “HDAC 6 at 50 nM” value on HDAC 6 stood at 32.

As for `C[C@@H]1Cc2ccccc2O[C@@H]1C(=O)NO` [Compound 1-22], the “PanHDAC at 1 uM” value in the data set with PanHDAC stood at 0. Besides, the “HDAC 6 at 50 nM” value on HDAC 6 worked out at 0. Consider `O=C(Nc1cccc2c1OC(C(=O)NO)CC2)OCc1ccc(C(F)(F)F)cc1` (stereo not shown) [Compound 1-42], for which, in the data set on PanHDAC, the “PanHDAC at 1 uM” value came out at 0. In addition, the “HDAC 6 at 50 nM” value at HDAC 6 stood at 14.

In the case of `O=C(NO)C1CCc2ccc(OCc3ccc(C(F)(F)F)cc3)cc2O1` (stereo not shown) [Compound 1-20], the “PanHDAC at 1 uM” value in the data set with PanHDAC worked out at 0. On HDAC 6, the “HDAC 6 at 50 nM” value is 32. The matching figures for `O=C(Nc1ccc2c(c1)CCC(C(=O)NO)O2)OCc1ccccc1` (stereo not shown) [Compound 1-9]: 0 and 50.

Take `O=C(COc1ccccc1Cl)Nc1cccc2c1O[C@H](C(=O)NO)CC2` [Compound 1-53]: in the data set with PanHDAC, the “PanHDAC at 1 uM” value is listed as 0. For the same compound, the “HDAC 6 at 50 nM” value on HDAC 6 was determined as 25.

As for `O=C(Nc1ccc(F)cc1)Nc1cccc2c1OC(C(=O)NO)CC2` (stereo not shown) [Compound 1-40], the “PanHDAC at 1 uM” value in the data set with PanHDAC is listed as 0. Moreover, the “HDAC 6 at 50 nM” value on HDAC 6 was determined as 30. As to `CO[C@@H]1C[C@@H](C(=O)NO)Oc2ccccc21` [Compound 1-29], in the data set on PanHDAC, the “PanHDAC at 1 uM” value came out at 0. Besides, on HDAC 6, the “HDAC 6 at 50 nM” value worked out at 37.

For the compound `CN1CC(C(=O)NO)Oc2ccccc21` (stereo not shown) [Compound 1-27], in the data set with PanHDAC, the “PanHDAC at 1 uM” value was 0. For the same compound, the “HDAC 6 at 50 nM” value on HDAC 6 came to 31. For `O=C(NCc1ccccc1)Nc1cccc2c1OC(C(=O)NO)CC2` (stereo not shown) [Compound 1-12], in the data set with PanHDAC, the “PanHDAC at 1 uM” value is listed as 0. For the same compound, the “HDAC 6 at 50 nM” value at HDAC 6 was found to be 28. Turning to `COc1ccc(COC(=O)Nc2ccc3c(c2)CCC(C(=O)NO)O3)cc1` (stereo not shown) [Compound 1-32], in the data set on PanHDAC, the “PanHDAC at 1 uM” value is recorded as 14. Moreover, the “HDAC 6 at 50 nM” value on HDAC 6 was 70.

As for `O=C(Nc1cccc2c1OC(C(=O)NO)CC2)OCc1ccccc1Cl` (stereo not shown) [Compound 1-13], the “PanHDAC at 1 uM” value in the data set with PanHDAC worked out at 0. For the same compound, on HDAC 6, the “HDAC 6 at 50 nM” value was determined as 23. `O=C(COc1ccc(Cl)c(Cl)c1)Nc1cccc2c1OC(C(=O)NO)CC2` (stereo not shown) [Compound 1-45]: the “PanHDAC at 1 uM” value with PanHDAC was 0. The “HDAC 6 at 50 nM” value on HDAC 6 came out at 0. Turning to `O=C(NO)C1CCc2cc(-c3ccc(-c4ccccc4)cc3)ccc2O1` (stereo not shown) [Compound 1-23], the “PanHDAC at 1 uM” value in the data set on PanHDAC worked out at 0. Also, the “HDAC 6 at 50 nM” value at HDAC 6 is reported as 50.

For the compound `Cc1ccc(S(=O)(=O)Nc2cccc3c2OC(C(=O)NO)CC3)cc1` (stereo not shown) [Compound 1-38], the “PanHDAC at 1 uM” value in the data set on PanHDAC was found to be 0. Moreover, the “HDAC 6 at 50 nM” value at HDAC 6 came to 21.
